Measured values published in patent publication US20050049245A1, “Heteroaryl-ethanolamine derivatives as antiviral agents” (priority 2002, published 2005).
Like-named read-outs stand apart in the source and are kept apart here.

What was measured:
[1] = target: HSV polymerase (Human herpesvirus 1, UniProt P04293); experiment: HSV polymerase assay (Table 1); type: biochemical
[2] = target: VZV polymerase (Varicella-zoster virus, UniProt P09252); experiment: VZV polymerase assay (Table 1); type: biochemical
Chain of VZV polymerase (P09252 whole entry): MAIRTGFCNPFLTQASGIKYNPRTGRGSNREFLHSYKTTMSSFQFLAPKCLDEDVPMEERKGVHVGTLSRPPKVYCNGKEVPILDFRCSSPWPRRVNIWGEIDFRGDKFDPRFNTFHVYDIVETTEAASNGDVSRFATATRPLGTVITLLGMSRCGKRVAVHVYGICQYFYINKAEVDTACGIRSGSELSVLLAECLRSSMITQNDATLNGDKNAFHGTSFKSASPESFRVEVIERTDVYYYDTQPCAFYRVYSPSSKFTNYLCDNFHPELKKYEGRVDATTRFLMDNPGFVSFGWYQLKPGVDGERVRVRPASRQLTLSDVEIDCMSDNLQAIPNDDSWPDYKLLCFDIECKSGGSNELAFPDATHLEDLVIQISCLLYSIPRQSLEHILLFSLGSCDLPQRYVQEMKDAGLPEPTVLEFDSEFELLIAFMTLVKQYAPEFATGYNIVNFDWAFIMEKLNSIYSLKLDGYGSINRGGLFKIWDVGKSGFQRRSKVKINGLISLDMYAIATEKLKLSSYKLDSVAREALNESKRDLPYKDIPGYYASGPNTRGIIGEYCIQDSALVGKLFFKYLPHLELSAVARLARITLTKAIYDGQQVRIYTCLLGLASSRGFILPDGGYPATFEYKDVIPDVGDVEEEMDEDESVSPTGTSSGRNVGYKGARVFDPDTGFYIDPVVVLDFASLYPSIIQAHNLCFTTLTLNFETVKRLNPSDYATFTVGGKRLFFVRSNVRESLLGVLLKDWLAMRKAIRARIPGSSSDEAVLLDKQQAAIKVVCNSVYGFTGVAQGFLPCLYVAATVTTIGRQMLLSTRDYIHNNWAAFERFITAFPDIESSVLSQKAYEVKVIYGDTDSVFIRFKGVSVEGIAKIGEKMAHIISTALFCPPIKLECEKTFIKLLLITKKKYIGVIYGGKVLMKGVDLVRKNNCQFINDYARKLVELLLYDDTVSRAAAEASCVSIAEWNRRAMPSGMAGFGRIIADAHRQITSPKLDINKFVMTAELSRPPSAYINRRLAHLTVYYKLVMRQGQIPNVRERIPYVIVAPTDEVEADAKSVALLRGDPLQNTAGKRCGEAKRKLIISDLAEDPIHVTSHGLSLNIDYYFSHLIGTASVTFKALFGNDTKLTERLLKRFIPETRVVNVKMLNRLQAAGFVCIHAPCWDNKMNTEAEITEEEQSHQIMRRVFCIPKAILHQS

[3] = target: T1, HCMV polymerase (Human cytomegalovirus, UniProt P08546); experiment: HCMV polymerase scintillation proximity assay (SPA); type: biochemical
T1 construct: made in house; host or cells: recombinant baculovirus-infected SF-9 cells
T1 sequence (P08546 whole entry): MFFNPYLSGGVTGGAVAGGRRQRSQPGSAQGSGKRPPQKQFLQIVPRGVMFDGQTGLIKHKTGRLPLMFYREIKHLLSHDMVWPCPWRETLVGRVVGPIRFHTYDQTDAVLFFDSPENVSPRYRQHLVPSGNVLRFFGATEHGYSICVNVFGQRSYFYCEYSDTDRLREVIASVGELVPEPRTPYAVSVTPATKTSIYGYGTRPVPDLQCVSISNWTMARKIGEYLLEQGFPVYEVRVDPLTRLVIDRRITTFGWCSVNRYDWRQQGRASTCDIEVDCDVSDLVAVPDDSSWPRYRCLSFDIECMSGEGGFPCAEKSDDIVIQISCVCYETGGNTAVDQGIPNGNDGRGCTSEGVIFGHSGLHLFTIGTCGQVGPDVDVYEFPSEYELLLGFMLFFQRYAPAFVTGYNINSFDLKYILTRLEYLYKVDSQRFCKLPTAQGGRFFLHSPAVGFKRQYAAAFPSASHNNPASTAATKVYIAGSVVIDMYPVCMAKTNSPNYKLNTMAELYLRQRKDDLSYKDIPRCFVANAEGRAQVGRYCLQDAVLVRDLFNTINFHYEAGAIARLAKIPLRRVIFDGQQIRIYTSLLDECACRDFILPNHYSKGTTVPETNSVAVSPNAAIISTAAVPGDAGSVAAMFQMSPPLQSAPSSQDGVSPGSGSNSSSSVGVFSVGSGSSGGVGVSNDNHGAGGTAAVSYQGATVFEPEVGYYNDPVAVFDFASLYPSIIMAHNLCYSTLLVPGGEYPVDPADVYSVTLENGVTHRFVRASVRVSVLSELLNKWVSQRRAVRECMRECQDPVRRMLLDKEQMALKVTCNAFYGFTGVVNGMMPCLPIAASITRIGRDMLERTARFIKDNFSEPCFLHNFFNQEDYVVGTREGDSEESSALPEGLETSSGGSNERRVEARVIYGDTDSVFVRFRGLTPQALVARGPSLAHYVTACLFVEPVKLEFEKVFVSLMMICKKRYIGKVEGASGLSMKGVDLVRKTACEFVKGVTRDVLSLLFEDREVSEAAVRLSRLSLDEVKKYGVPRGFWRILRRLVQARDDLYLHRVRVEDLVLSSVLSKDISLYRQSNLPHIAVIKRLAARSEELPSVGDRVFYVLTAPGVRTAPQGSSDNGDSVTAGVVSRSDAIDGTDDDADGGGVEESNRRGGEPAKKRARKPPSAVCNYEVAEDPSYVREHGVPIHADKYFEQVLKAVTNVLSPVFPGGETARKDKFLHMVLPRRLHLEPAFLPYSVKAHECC
Protocol: The HCMV polymerase assay is performed using a scintillation proximity assay (SPA) as described in several references, such as N. D. Cook, et al., Pharmaceutical Manufacturing International, pages 49-53 (1992); KY Takeuchi, Laboratory Practice, September issue (1992); U.S. Pat. No. 4,568,649 (1986); which are incorporated by reference herein. Reactions are performed in 96-well plates. The assay is conducted in 100 yl volume with 5.4 mM HEPES (pH 7.5), 11.7 mM KCl, 4.5 mM MgCl2, 0.36 mg/ml BSA, and 90 nM ^3H-dTTP. Assays are run with and without CHAPS, (3-[(3-Cholamidopropyl)-dimethylammonio]-1-propane-sulfonate) at a final concentration of 2 mM. HCMV polymerase is diluted in enzyme dilution buffer containing 50% glycerol, 250 mM NaCl, 10 mM HEPES (pH 7.5), 100 μg/ml BSA, and 0.01% sodium azide. The HCMV polymerase, which is expressed in recombinant baculovirus-infected SF-9 cells and purified according to literature procedures, is added at 10% (or 10 μl) of the final reaction volume, i.e., 100 μl. Compounds are diluted in 50% DMSO and 10 μl are added to each well. Control wells contain an equivalent concentration of DMSO. Unless noted otherwise, reactions are initiated via the addition of 6 nM biotinylated poly(dA)-oligo(dT) template/primer to reaction mixtures containing the enzyme, substrate, and compounds of interest. Plates are incubated in a 25° C. or 37° C. H2O bath and terminated via the addition of 40 μl/reaction of 0.5 M EDTA (pH 8) per well. Reactions are terminated within the time-frame during which substrate incorporation is linear and varied depending upon the enzyme and conditions used, i.e., 30 min. for HCMV polymerase. Ten (10) μl of streptavidin-SPA beads (20 mg/ml in PBS/10% glycerol) are added following termination of the reaction. Plates are incubated 10 min. at 37° C., then equilibrated to room temperature, and counted on a Packard Topcount. Linear regressions are performed and IC50's are calculated using computer software.
A modified version of the above HCMV polymerase assay is performed as described above, but with the following changes: Compounds are diluted in 100% DMSO until final dilution into assay buffer. In the previous assay, compounds are diluted in 50% DMSO. 4.5 mM Dithiothreitol (DTT) is added to the polymerase buffer.
All results are listed as Polymerase IC50 ([…]) values. In Table 1, the term “n.d.” refers to activity data not determined.

[4] = HSV polymerase, read-out: Polymerase IC50 HSV
[5] = VZV polymerase, read-out: Polymerase IC50 VZV
[6] = HCMV polymerase, SPA, read-out: Polymerase IC50 HCMV

Chain of HSV polymerase (P04293 whole entry): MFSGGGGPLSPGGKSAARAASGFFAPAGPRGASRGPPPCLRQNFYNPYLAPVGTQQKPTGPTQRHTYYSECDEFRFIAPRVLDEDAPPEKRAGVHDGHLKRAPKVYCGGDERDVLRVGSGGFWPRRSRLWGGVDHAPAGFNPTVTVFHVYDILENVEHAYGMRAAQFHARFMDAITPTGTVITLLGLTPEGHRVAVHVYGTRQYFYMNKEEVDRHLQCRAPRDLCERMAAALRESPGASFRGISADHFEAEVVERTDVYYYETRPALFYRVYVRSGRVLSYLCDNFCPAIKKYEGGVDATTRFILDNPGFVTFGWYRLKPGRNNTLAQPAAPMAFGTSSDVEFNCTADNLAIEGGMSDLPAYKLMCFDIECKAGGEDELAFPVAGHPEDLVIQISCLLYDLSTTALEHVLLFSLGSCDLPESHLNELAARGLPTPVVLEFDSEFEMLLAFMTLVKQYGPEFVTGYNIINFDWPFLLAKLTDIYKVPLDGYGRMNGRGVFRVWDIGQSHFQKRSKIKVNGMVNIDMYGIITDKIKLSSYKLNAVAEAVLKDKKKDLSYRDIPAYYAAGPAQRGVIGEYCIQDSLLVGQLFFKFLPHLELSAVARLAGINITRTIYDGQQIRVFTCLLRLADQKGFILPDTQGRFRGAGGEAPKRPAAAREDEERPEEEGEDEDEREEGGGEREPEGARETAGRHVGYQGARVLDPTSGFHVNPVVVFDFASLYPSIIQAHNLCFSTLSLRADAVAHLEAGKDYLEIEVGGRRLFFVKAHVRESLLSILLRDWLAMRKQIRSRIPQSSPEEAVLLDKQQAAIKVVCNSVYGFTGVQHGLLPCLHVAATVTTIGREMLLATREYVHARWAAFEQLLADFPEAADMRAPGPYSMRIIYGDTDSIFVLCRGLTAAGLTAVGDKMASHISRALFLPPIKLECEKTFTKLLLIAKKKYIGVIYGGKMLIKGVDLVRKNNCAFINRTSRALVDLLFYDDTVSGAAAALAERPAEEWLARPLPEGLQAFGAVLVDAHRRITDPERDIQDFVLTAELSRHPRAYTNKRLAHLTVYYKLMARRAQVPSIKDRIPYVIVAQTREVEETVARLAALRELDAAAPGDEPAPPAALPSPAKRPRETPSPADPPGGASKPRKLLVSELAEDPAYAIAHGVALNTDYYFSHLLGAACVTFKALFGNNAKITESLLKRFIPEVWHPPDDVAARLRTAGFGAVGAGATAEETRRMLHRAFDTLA

Row | Structure (SMILES) | IC50 [1, 4] [nM] | IC50 [2, 5] [nM] | IC50 [3, 6] [nM] | further results
1 | CN(Cc1cc2c(=O)c(C(=O)NCc3ccc(Cl)cc3)cn(CC(O)CO)c2s1)C[C@@H](O)c1ccco1 (stereo partly drawn) [Example 26, N-(4-Chlorobenzyl)-7-(2,3-dihydroxypropyl)-2-((((2R)-2-(2-furyl)-2-hydroxy-ethyl)(methyl)amino)methyl)-4-oxo-4,7-dihydrothieno[2,3-b]pyridine-5-carboxamide] | 540 | 330 | 150 | –
2 | CCCn1cc(C(=O)NCc2ccc(Cl)cc2)c(=O)c2cc(CN(C)C[C@@H](O)c3ccco3)sc21 [Example 32, N-(4-Chlorobenzyl)-2-((((2R)-2-(2-furyl)-2-hydroxyethyl)(methyl)amino)methyl)-4-oxo-7-propyl-4,7-dihydrothieno[2,3-b]pyridine-5-carboxamide] | 740 | 220 | 180 | –
3 | CN(Cc1cc2c(=O)c(C(=O)NCc3ccc(Cl)cc3)cn(CCO)c2s1)CC(O)c1cc2ccccc2o1 (racemic) [Example 29, rac-2-(((2-(1-Benzofuran-2-yl)-2-hydroxyethyl)(methyl)amino)methyl)-N-(4-chlorobenzyl)-7-(2-hydroxyethyl)-4-oxo-4,7-dihydrothieno[2,3-b]pyridine-5-carboxamide] | – | – | 600 | –
4 | CN(Cc1cc2c(=O)c(C(=O)NCc3ccc(Cl)cc3)cn(CCCO)c2s1)C[C@@H](O)c1ccco1 [Example 27, N-(4-Chlorobenzyl)-2-((((2R)-2-(2-furyl)-2-hydroxyethyl)(methyl)amino)methyl)-7-(3-hydroxypropyl)-4-oxo-4,7-dihydrothieno[2,3-b]pyridine-5-carboxamide] | – | – | – | IC50 [1]: 590 nM; IC50 [2]: 280 nM; IC50 [3]: 360 nM
5 | CN(Cc1cc2c(=O)c(C(=O)NCc3ccc(Cl)cc3)cn(C)c2s1)CC(O)c1ccc(C#N)s1 (racemic) [Example 15, rac-N-(4-Chlorobenzyl)-2-(((2-(5-cyanothien-2-yl)-2-hydroxyethyl)(methyl)-amino)methyl)-7-methyl-4-oxo-4,7-dihydrothieno[2,3-b]pyridine-5-carboxamide] | – | – | 240 | melting point: 155 to 160 °C (dec.)
6 | CN(Cc1cc2c(=O)c(C(=O)NCc3ccc(Cl)cc3)cn(C)c2s1)C[C@@H](O)c1ccn[nH]1 (single isomer, unassigned) [Example 19] | 780 | 290 | 210 | –
7 | CN(Cc1cc2c(=O)c(C(=O)NCc3ccc(Cl)cc3)cn(C)c2s1)CC(O)c1ncc[nH]1 (racemic) [Example 36, rac-N-(4-Chlorobenzyl)-2-(((2-hydroxy-2-(1H-imidazol-2-yl)ethyl)(methyl)-amino)methyl)-7-methyl-4-oxo-4,7-dihydrothieno[2,3-b]pyridine-5-carboxamide] | – | – | 830 | melting point: 177.9 to 179.5 °C
8 | CN(Cc1cc2c(=O)c(C(=O)NCc3ccc(Cl)cc3)cn(C)c2s1)CC(O)c1ccco1 (racemic) [Example 1, rac-N-(4-Chlorobenzyl)-2-(((2-(2-furyl)-2-hydroxyethyl)(methyl)amino)methyl)-7-methyl-4-oxo-4,7-dihydrothieno[2,3-b]pyridine-5-carboxamide] | 220 | 60 | 80 | –
9 | CN(Cc1cc2c(=O)c(C(=O)NCc3ccc(Cl)cc3)cn(CCOCCO)c2s1)C[C@@H](O)c1ccco1 [Example 35, N-(4-Chlorobenzyl)-2-((((2R)-2-(2-furyl)-2-hydroxyethyl)(methyl)amino)methyl)-7-(2-(2-hydroxyethoxy)ethyl)-4-oxo-4,7-dihydrothieno[2,3-b]pyridine-5-carboxamide] | – | – | 560 | –
10 | CCCn1cc(C(=O)NCc2ccc(Cl)cc2)c(=O)c2cc(CN(C)CC(O)c3cc4ccccc4o3)sc21 (racemic) [Example 23, rac-2-(((2-(1-Benzofuran-2-yl)-2-hydroxyethyl)(methyl)amino)methyl)-N-(4-chlorobenzyl)-7-propyl-4-oxo-4,7-dihydrothieno[2,3-b]pyridine-5-carboxamide] | – | – | 260 | –
11 | CN(Cc1cc2c(=O)c(C(=O)NCc3ccc(Cl)cc3)cn(CCO)c2s1)C[C@@H](O)c1ccco1 [Example 34, N-(4-Chlorobenzyl)-2-((((2R)-2-(2-furyl)-2-hydroxyethyl)(methyl)amino)methyl)-7-(2-hydroxyethyl)-4-oxo-4,7-dihydrothieno[2,3-b]pyridine-5-carboxamide] | 1080 | 340 | 240 | –
12 | CN(Cc1cc2c(=O)c(C(=O)NCc3ccc(Cl)cc3)cn(C)c2s1)CC(O)c1nc2ccccc2s1 (racemic) [Example 17, rac-2-(((2-(1,3-Benzothiazol-2-yl)-2-hydroxyethyl)(methyl)amino)methyl)-N-(4-chlorobenzyl)-7-methyl-4-oxo-4,7-dihydrothieno[2,3-b]pyridine-5-carboxamide] | 390 | 110 | 120 | –
13 | CN(Cc1cc2c(=O)c(C(=O)NCc3ccc(Cl)cc3)cn(C)c2s1)C[C@@H](O)c1ccco1 [Example 2, (+)—N-(4-Chlorobenzyl)-2-((((R)-2-(2-furyl)-2-hydroxyethyl)(methyl)amino)-methyl)-7-methyl-4-oxo-4,7-dihydrothieno [2,3-b]pyridine-5-carboxamide] | 90 | 30 | 40 | –
14 | CN(Cc1cc2c(=O)c(C(=O)NCc3ccc(Cl)cc3)cn(C)c2s1)CC(O)c1ccc(Cl)o1 (centres unmarked) [Example 33, N-(4-Chlorobenzyl)-2-(((2-(5-chloro-2-furyl)-2-hydroxyethyl)(methyl)amino)-methyl)-7-methyl-4-oxo-4,7-dihydrothieno[2,3-b]pyridine-5-carboxamide] | 80 | – | 20 | –
15 | CN(Cc1cc2c(=O)c(C(=O)NCc3ccc(Cl)cc3)cn(C)c2s1)CC(O)c1cccs1 (racemic) [Example 6, rac-N-(4-Chlorobenzyl)-2-(((2-hydroxy-2-thien-2-ylethyl)(methyl)amino)methyl)-7-methyl-4-oxo-4,7-dihydrothieno[2,3-b]pyridine-5-carboxamide] | 470 | 150 | 170 | –
16 | Cc1cc(C(O)CN(C)Cc2cc3c(=O)c(C(=O)NCc4ccc(Cl)cc4)cn(C)c3s2)c(C)o1 (racemic) [Example 12, rac-N-(4-Chlorobenzyl)-2-(((2-(2,5-dimethyl-3-furyl)-2-hydroxyethyl)(methyl)-amino)methyl)-7-methyl-4-oxo-4,7-dihydrothieno[2,3-b]pyridine-5-carboxamide] | – | – | 280 | melting point: 167 to 172 °C
17 | CCn1cc(C(=O)NCc2ccc(Cl)cc2)c(=O)c2cc(CN(C)CC(O)c3cc4ccccc4o3)sc21 (racemic) [Example 22, rac-2-(((2-(1-Benzofuran-2-yl)-2-hydroxyethyl)(methyl)amino)methyl)-N-(4-chlorobenzyl)-7-ethyl-4-oxo-4,7-dihydrothieno[2,3-b]pyridine-5-carboxamide] | 170 | 80 | 90 | –
18 | CN(Cc1cc2c(=O)c(C(=O)NCc3ccc(Cl)cc3)cn(CCCO)c2s1)CC(O)c1cc2ccccc2o1 (racemic) [Example 28, rac-2-(((2-(1-Benzofuran-2-yl)-2-hydroxyethyl)(methyl)amino)methyl)-N-(4-chlorobenzyl)-7-(3-hydroxypropyl)-4-oxo-4,7-dihydrothieno[2,3-b]pyridine-5-carboxamide] | – | – | – | IC50 [3]: 300 nM
19 | CN(Cc1cc2c(=O)c(C(=O)NCc3ccc(Cl)cc3)cn(CC(O)CO)c2s1)CC(O)c1cc2ccccc2o1 (racemic) [Example 25, rac-2-(((2-(1-Benzofuran-2-yl)-2-hydroxyethyl)(methyl)amino)methyl)-N-(4-chlorobenzyl)-7-(2,3-dihydroxypropyl)-4-oxo-4,7-dihydrothieno[2,3-b]pyridine-5-carboxamide] | – | – | 1800 | –
20 | COCCn1cc(C(=O)NCc2ccc(Cl)cc2)c(=O)c2cc(CN(C)C[C@@H](O)c3ccco3)sc21 [Example 21, N-(4-Chlorobenzyl)-2-((((2R)-2-(2-furyl)-2-hydroxyethyl)(methyl)amino)methyl)-7-(2-methoxyethyl)-4-oxo-4,7-dihydrothieno[2,3-b]pyridine-5-carboxamide] | – | – | 350 | –
